The subject of series [1] is Mycosphaerella graminicola; anamorph: Septoria tritici; Bayer code SEPTTR. Kind of series: Fungicidal activity: leaf blotch of wheat, one-day protectant and three-day curative tests on wheat plants. Type of series: in vivo, Septoria tritici on wheat plants (variety Yuma). The settings on record: Zymoseptoria tritici. As for the experimental part: Evaluation of Fungicidal Activity: Leaf Blotch of Wheat (Mycosphaerella graminicola; anamorph: Septoria tritici; Bayer code […]) Wheat plants (variety Yuma) were grown from seed in a greenhouse in 50% mineral soil/50% soil-less Metro mix until the first leaf was fully emerged, with 7-10 seedlings per pot. These plants were inoculated with an aqueous spore suspension of Septoria tritici either prior to or after fungicide treatments. After inoculation the plants were kept in 100% relative humidity (one day in a dark dew chamber followed by two to three days in a lighted dew chamber) to permit spores to germinate and infect the leaf. The plants were then transferred to a greenhouse for disease to develop. The following table presents the activity of typical compounds of the present disclosure when evaluated in these experiments. The effectiveness of the test compounds in controlling disease was determined by assessing the severity of disease on treated plants, then converting the severity to percent control based on the level of disease on untreated, inoculated plants.

The mark [2] stands for this setting: 24 h, read-out: SEPTTR 100 PPM 1DP (% disease control rating).
[3] abbreviates: 72 h, read-out: SEPTTR 100 PPM 3DC (% disease control rating).
The mark [4] stands for this setting: 24 h, One-Day Protectant (1DP), 100 ppm, wheat plants, percent control relative to untreated, inoculated plants, read-out: SEPTTR 100 PPM 1DP (% disease control rating).
The mark [5] stands for this setting: 72 h, Three-Day Curative (3DC), 100 ppm, wheat plants, percent control relative to untreated, inoculated plants, read-out: SEPTTR 100 PPM 3DC (% disease control rating).

Each structure is given as a SMILES string. Like-named read-outs stand apart in the source and are kept apart here.

Regarding `CN(C)/C=N/c1nc(=O)n(C(=O)OCC(C)(C)C)cc1F` [Compound 1, 4-(dimethylamino-methyleneamino)-5-fluoro-2-oxo-2H-pyrimidine-1-carboxylic acid 2,2-dimethyl-propyl ester], the melting point fell in the range of 162 to 164 °C. For the same compound, the pest or weed control at 100 ppm in series [1] (setting [2]) is 76 to 100%. Also, the pest or weed control at 100 ppm in series [1] (setting [3]) lay in the range of 76 to 100%.

In turn, `Nc1nc(=O)n(C(=O)OCc2ccccc2)cc1F` [Compound 2, benzyl 4-amino-5-fluoro-2-oxopyrimidine-1(2H)-carboxylate] showed a melting point of 212 to 215 °C. For the same compound, in series [1] (setting [2]), the pest or weed control at 100 ppm was 76 to 100%. For the same compound, the pest or weed control at 100 ppm in series [1] (setting [3]) was in the range of 76 to 100%.

`CCOC(=O)n1cc(F)c(N)nc1=O` [Compound 3, ethyl 4-amino-5-fluoro-2-oxopyrimidine-1(2H)-carboxylate]: the melting point lay within 190 to 193 °C. Moreover, the pest or weed control at 100 ppm in series [1] (setting [2]) was in the range of 76 to 100%. In addition, the pest or weed control at 100 ppm in series [1] (setting [3]) lay in the range of 76 to 100%.

The compound `CC(C)OC(=O)n1cc(F)c(N)nc1=O` [Compound 4, isopropyl 4-amino-5-fluoro-2-oxopyrimidine-1(2H)-carboxylate] showed a melting point of 217 to 219 °C. In addition, the pest or weed control at 100 ppm in series [1] (setting [2]) lay within 76 to 100%. The pest or weed control at 100 ppm in series [1] (setting [3]) is 76 to 100%.

Regarding `Nc1nc(=O)n(C(=O)Oc2ccccc2)cc1F` [Compound 5, phenyl 4-amino-5-fluoro-2-oxopyrimidine-1(2H)-carboxylate], the melting point fell in the range of 175 to 180 °C. In series [1] (setting [2]), the pest or weed control at 100 ppm fell in the range of 76 to 100%. For the same compound, the pest or weed control at 100 ppm in series [1] (setting [3]) fell in the range of 76 to 100%.

For `COc1ccc(OC(=O)n2cc(F)c(N)nc2=O)cc1` [Compound 6], the melting point lay in the range of 172.4 to 173.6 °C. For the same compound, the pest or weed control at 100 ppm in series [1] (setting [4]) lay in the range of 76 to 100%. Moreover, the pest or weed control at 100 ppm in series [1] (setting [5]) fell in the range of 76 to 100%.

With `Nc1nc(=O)n(C(=O)Oc2ccc(Cl)cc2)cc1F` [Compound 7], the melting point fell in the range of 143.2 to 146.3 °C. Moreover, the pest or weed control at 100 ppm in series [1] (setting [4]) is 76 to 100%. The pest or weed control at 100 ppm in series [1] (setting [5]) was in the range of 76 to 100%.

Compound `Nc1nc(=O)n(C(=O)Oc2ccccc2Cl)cc1F` [Compound 8] returned a melting point of 222.5 to 224.6 °C. Further, in series [1] (setting [4]), the pest or weed control at 100 ppm was in the range of 76 to 100%. The pest or weed control at 100 ppm in series [1] (setting [5]) lay within 76 to 100%.

`Nc1nc(=O)n(C(=O)Oc2ccc(F)cc2)cc1F` [Compound 9] had a melting point of 156.8 to 158.2 °C. Further, the pest or weed control at 100 ppm in series [1] (setting [4]) is 76 to 100%. Besides, the pest or weed control at 100 ppm in series [1] (setting [5]) lay within 76 to 100%.

Compound `Cc1ccc(OC(=O)n2cc(F)c(N)nc2=O)cc1` [Compound 10] showed a melting point of 235 to 237 °C. The pest or weed control at 100 ppm in series [1] (setting [4]) lay in the range of 76 to 100%. The pest or weed control at 100 ppm in series [1] (setting [5]) lay in the range of 76 to 100%.

Take `Nc1nc(=O)n(C(=O)OCc2ccccc2Cl)cc1F` [Compound 11]: the melting point lay in the range of 145.8 to 146.8 °C. The pest or weed control at 100 ppm in series [1] (setting [4]) fell in the range of 76 to 100%. Also, the pest or weed control at 100 ppm in series [1] (setting [5]) fell in the range of 76 to 100%.

In the case of `Nc1nc(=O)n(C(=O)OCCOCc2ccccc2)cc1F` [Compound 12], the melting point lay within 142.8 to 145.1 °C. Besides, in series [1] (setting [4]), the pest or weed control at 100 ppm was in the range of 76 to 100%. Further, the pest or weed control at 100 ppm in series [1] (setting [5]) is 76 to 100%.

As for `COC(=O)n1cc(F)c(N)nc1=O` [Compound 13], the melting point lay within 240 to 243 °C. In series [1] (setting [4]), the pest or weed control at 100 ppm fell in the range of 76 to 100%. Further, in series [1] (setting [5]), the pest or weed control at 100 ppm was 76 to 100%.

With `Nc1nc(=O)n(C(=O)OCCCCl)cc1F` [Compound 14], the melting point was in the range of 145.1 to 146.3 °C. Besides, the pest or weed control at 100 ppm in series [1] (setting [4]) was 76 to 100%. Besides, in series [1] (setting [5]), the pest or weed control at 100 ppm was 76 to 100%.

The compound `COCCOC(=O)n1cc(F)c(N)nc1=O` [Compound 15] returned a melting point of 94.2 to 96.3 °C. The pest or weed control at 100 ppm in series [1] (setting [4]) is 76 to 100%. Moreover, the pest or weed control at 100 ppm in series [1] (setting [5]) fell in the range of 76 to 100%.

As for `Nc1nc(=O)n(C(=O)OCC(Cl)(Cl)Cl)cc1F` [Compound 16], the melting point is 219.3 to 221.1 °C. Further, the pest or weed control at 100 ppm in series [1] (setting [4]) is 76 to 100%. In series [1] (setting [5]), the pest or weed control at 100 ppm is 76 to 100%.

`C=CCOC(=O)n1cc(F)c(N)nc1=O` [Compound 17]: the melting point fell in the range of 258 to 260.4 °C. The pest or weed control at 100 ppm in series [1] (setting [4]) lay within 76 to 100%. In addition, in series [1] (setting [5]), the pest or weed control at 100 ppm lay within 76 to 100%.

Regarding `Nc1nc(=O)n(C(=O)Oc2ccc3ccccc3c2)cc1F` [Compound 18], the melting point is 165.8 to 168.1 °C. The pest or weed control at 100 ppm in series [1] (setting [4]) lay within 76 to 100%. Moreover, the pest or weed control at 100 ppm in series [1] (setting [5]) fell in the range of 76 to 100%.

`CCCCCOC(=O)n1cc(F)c(N)nc1=O` [Compound 19] had a melting point of 125.9 to 128.2 °C. Also, the pest or weed control at 100 ppm in series [1] (setting [4]) fell in the range of 76 to 100%. For the same compound, in series [1] (setting [5]), the pest or weed control at 100 ppm is 76 to 100%.

Regarding `Nc1nc(=O)n(C(=O)OC2CCCC2)cc1F` [Compound 20], the melting point was in the range of 139.8 to 140.6 °C. Moreover, the pest or weed control at 100 ppm in series [1] (setting [4]) was in the range of 76 to 100%. Besides, the pest or weed control at 100 ppm in series [1] (setting [5]) lay in the range of 76 to 100%.

Compound `Nc1nc(=O)n(C(=S)Oc2ccccc2)cc1F` [Compound 21, O-phenyl 4-amino-5-fluoro-2-oxopyrimidine-1(2H)-carbothioate] yielded a melting point of 113 to 116 °C. For the same compound, in series [1] (setting [4]), the pest or weed control at 100 ppm was in the range of 76 to 100%. Besides, in series [1] (setting [5]), the pest or weed control at 100 ppm lay within 76 to 100%.

Compound `CN(C)/C=N/c1nc(=O)n(C(=O)OCc2ccccc2)cc1F` [Compound 23] had a melting point of 123.2 to 124.3 °C.

`Cc1ccc(OC(=O)n2cc(F)c(/N=C/N(C)C)nc2=O)cc1` [Compound 24]: the melting point fell in the range of 179 to 181.2 °C.

On to `CN(C)/C=N/c1nc(=O)n(C(=O)OC2CCCC2)cc1F` [Compound 26], for which the melting point fell in the range of 103.5 to 104.6 °C.

A word on the melting point: it is the temperature, or range, at which the solid turns liquid.

The values above are taken from US8318758B2, “5-fluoro-2-oxopyrimidine-1(2H)-carboxylate derivatives” (Dow AgroSciences, LLC, priority 2009, dated 2012).
